Data: US10214509B2, “Amino-substituted heterocyclic derivatives as sodium channel inhibitors” (ALMIRALL, S.A., priority 2015, dated 2019)

Columns and labels:
[1] = molecular target: voltage-gated sodium channel Nav1.7 (Homo sapiens (Human), UniProt Q15858); experiment: Nav1.7 screening assay, IonWorks Quattro automated patch-clamp electrophysiology; type: cell-based; conditions: stable cell line expressing Nav1.7; holding potential −100 mV; compound incubation 5 minutes; IC50 fitted to percent block; read-out: Nav 1.7 IC50
voltage-gated sodium channel Nav1.7, sequence (Q15858 whole entry): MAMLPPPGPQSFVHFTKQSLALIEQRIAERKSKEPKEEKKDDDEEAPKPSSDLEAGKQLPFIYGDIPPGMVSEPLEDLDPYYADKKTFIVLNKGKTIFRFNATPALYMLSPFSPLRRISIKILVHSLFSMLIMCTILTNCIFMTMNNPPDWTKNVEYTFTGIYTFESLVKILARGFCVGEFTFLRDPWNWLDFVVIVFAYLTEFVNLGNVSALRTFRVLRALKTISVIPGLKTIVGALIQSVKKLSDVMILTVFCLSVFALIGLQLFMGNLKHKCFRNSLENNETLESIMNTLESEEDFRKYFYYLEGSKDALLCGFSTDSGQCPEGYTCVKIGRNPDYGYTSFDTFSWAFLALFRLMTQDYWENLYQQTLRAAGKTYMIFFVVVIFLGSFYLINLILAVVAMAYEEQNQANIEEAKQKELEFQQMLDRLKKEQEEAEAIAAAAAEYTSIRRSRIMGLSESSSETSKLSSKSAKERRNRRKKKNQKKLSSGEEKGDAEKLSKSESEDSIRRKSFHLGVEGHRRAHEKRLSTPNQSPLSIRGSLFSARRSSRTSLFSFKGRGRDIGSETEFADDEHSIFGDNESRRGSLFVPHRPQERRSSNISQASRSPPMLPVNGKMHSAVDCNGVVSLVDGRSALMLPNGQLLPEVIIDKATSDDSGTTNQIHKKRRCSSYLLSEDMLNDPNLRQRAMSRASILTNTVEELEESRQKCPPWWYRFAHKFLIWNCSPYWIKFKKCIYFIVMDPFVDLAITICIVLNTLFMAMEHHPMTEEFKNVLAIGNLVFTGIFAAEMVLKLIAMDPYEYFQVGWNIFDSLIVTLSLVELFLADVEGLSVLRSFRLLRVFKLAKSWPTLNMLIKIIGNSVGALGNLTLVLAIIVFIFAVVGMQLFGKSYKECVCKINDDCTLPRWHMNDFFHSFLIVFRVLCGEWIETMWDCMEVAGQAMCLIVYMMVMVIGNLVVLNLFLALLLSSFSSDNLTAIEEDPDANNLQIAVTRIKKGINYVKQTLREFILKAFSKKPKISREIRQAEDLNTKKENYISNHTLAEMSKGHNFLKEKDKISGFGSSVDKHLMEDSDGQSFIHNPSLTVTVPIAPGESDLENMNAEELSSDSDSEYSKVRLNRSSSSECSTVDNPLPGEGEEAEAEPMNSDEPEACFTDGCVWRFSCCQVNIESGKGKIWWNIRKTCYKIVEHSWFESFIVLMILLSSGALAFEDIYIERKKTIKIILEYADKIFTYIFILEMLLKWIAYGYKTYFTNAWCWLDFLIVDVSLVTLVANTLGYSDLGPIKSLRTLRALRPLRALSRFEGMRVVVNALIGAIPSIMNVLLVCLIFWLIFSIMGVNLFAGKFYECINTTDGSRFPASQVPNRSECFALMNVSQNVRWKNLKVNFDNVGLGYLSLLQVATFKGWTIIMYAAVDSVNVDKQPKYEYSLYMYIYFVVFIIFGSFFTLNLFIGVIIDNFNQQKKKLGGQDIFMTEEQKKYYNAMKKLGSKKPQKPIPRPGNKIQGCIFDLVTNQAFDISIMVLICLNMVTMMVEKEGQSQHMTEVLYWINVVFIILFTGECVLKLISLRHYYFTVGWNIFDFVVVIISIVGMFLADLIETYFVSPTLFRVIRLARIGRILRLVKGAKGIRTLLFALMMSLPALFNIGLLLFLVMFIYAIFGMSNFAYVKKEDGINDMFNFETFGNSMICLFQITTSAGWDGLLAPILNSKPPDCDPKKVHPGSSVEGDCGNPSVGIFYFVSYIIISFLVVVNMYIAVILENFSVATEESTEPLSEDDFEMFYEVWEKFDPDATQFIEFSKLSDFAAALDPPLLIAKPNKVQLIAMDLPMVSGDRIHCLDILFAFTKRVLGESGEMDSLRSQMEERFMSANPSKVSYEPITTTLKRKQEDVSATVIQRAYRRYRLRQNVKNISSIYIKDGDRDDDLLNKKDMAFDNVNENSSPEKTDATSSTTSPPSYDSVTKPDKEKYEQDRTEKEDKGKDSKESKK
Procedure: (§1) Assay Procedure Nav1.7 and Nav1.5 Screening Assay
(§2) Stable cell lines expressing the full-length protein of the voltage-gated sodium channels Nav1.7 or Nav1.5, with or without one beta-1, beta-2, beta-3, or beta-4 subunit, are created by transfected CHO cells or HEK293 cells, or any other suitable cell line, with a vector construct containing the complete open reading frame under a suitable promoter, as well known in the art.
(§3) Electrophysiological studies are performed with an IonWorks Quattro (Molecular Devices Corp.) automated patch-clamp electrophysiology platform as described by (Schroeder K et al. Journal of Biomolecular Screening 2003, 8 (1), 50-64). Buffers for the experiments have the following composition (mM): Internal solution; K-gluconate 100, KCl 40, MgCl2 3.2, HEPES 5, EGTA 3, pH 7.3. To this amphotericin B is added to final concentration of 0.1 mg/ml to generate access solution. External solution; Dulbecco's Phosphate buffered saline (D-PBS) NaCl 137.93, KCl 2.67, KH2PO4 1.47, Na2HPO4 8.06, CaCl2 0.90, MgCl2 0.49. Prior to the experiment the cells expressing the voltage-gated ion channel of interest are detached from the tissue culture flasks, centrifuged and resuspended in D-PBS. Compounds are prepared and serially diluted in DMSO and finally diluted 1:100 in D-PBS. Cells are exposed to compounds through the pipetting system integrated into the platform and the voltage-gated ion channel of interest is activated with specific voltage stimulation protocols. The following voltage stimulation protocol is used for testing compounds against the voltage-gated sodium channel Nav1.7; from a holding potential of −100 mV a train of eight 60 ms depolarising steps to −20 mV at a frequency of 14 Hz are employed followed by a further step to −20 mV for 2000 ms. After which the voltage is returned to −100 mV for 10 ms before another voltage step to −20 mV for 60 ms is applied. The following voltage stimulation protocol is used for testing compounds against the voltage-gated sodium channel Nav1.5; from a holding potential of −120 mV a train of twenty-six 120 ms depolarising steps to −20 mV at a frequency of 5 Hz are employed. Recordings are made before and after compound addition with the compound incubation time being 5 minutes.
(§4) Percent block was calculated for each concentration in duplicate for peak 1 and peak 10 and peak 1 and 25 for Nav 1.7 and Nav 1.5 respectively in order to assess compound activity at close and inactivated states and IC50 curves were fitted to percent block as a function of concentration.

[2] = molecular target: voltage-gated sodium channel Nav1.5 (Homo sapiens (Human), UniProt Q14524); experiment: Nav1.5 screening assay, IonWorks Quattro automated patch-clamp electrophysiology; type: cell-based; conditions: stable cell line expressing Nav1.5; holding potential −120 mV; compound incubation 5 minutes; IC50 fitted to percent block; read-out: Nav 1.5 IC50
voltage-gated sodium channel Nav1.5, sequence (Q14524 whole entry): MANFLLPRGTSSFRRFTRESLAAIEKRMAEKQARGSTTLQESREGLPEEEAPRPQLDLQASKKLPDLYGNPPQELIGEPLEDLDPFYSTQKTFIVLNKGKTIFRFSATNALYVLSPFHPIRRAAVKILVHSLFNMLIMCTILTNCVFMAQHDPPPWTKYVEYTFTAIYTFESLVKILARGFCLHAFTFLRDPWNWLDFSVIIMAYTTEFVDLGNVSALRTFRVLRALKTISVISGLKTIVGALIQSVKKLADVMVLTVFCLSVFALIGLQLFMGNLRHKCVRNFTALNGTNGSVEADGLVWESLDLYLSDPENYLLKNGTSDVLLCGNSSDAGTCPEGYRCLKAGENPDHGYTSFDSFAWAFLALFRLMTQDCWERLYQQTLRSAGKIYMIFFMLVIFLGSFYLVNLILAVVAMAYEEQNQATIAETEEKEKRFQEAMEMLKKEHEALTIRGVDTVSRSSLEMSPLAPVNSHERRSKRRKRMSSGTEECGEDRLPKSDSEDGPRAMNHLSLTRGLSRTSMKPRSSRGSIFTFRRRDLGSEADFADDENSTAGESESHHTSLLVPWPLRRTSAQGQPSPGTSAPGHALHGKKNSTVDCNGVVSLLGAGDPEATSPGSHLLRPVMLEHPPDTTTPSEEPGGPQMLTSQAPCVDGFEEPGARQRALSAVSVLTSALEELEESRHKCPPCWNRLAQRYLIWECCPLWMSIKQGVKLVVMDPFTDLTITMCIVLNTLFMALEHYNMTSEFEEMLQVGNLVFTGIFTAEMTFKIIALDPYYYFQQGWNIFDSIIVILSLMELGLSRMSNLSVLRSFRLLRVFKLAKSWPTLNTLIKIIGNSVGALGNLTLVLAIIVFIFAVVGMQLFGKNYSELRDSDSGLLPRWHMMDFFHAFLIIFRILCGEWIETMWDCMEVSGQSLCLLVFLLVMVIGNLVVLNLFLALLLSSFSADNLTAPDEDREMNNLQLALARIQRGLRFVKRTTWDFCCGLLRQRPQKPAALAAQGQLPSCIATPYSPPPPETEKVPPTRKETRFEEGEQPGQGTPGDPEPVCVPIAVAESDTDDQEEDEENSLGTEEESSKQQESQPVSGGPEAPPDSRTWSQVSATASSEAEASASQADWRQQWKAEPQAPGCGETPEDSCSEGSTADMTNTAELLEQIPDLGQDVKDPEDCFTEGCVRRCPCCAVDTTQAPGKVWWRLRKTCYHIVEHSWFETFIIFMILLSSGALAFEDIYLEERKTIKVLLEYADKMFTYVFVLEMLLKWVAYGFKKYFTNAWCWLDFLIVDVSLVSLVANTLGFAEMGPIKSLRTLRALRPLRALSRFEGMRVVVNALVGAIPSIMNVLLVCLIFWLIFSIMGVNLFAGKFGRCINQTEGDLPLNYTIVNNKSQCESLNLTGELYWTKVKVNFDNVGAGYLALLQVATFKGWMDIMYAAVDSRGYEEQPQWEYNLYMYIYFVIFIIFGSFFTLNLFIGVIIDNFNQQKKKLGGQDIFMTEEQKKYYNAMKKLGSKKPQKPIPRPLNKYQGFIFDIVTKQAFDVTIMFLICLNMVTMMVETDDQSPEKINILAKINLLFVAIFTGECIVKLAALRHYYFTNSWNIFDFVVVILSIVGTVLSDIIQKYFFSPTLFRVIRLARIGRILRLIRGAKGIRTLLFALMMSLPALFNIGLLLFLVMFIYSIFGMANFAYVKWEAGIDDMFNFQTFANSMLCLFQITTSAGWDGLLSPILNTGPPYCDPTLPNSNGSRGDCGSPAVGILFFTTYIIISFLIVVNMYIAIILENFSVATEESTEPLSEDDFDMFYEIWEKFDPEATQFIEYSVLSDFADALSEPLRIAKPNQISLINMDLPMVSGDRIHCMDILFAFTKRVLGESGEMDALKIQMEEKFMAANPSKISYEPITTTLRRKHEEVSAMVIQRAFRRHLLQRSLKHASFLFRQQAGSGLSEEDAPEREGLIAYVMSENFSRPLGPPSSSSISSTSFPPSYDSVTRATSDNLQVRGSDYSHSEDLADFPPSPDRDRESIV
Procedure: as §1, §2, §3, §4

| Compound | IC50 [1] [nM] | IC50 [2] [nM] |
| --- | --- | --- |
| 5-Amino-1-(2-(2-methoxyethoxy)phenyl)-3-methyl-N-(2-methyl-4-(trifluoromethyl)phenyl)-1H-pyrazole-4-carboxamide [Example 115] | 700 | > 33000 |
| COc1ccccc1-n1ncc(C(=O)Nc2ccc(Cl)cc2)c1N [Example 1, 5-Amino-N-(4-chlorophenyl)-1-(2-methoxyphenyl)-1H-pyrazole-4-carboxamide] | 700 | 21000 |
| COCCOc1ccccc1-n1nc(C)c(C(=O)Nc2ccc(C(F)(F)F)cc2F)c1N [Example 38, 5-Amino-N-(2-fluoro-4-(trifluoromethyl)phenyl)-1-(2-(2-methoxyethoxy)phenyl)-3-methyl-1H-pyrazole-4-carboxamide] | 700 | > 33000 |
| Cc1c(F)cccc1-n1ncc(C(=O)Nc2ccc(OC(F)(F)F)cn2)c1N [Example 55, 5-Amino-1-(3-fluoro-2-methylphenyl)-N-(5-(trifluoromethoxy)pyridin-2-yl)-1H-pyrazole-4-carboxamide] | 500 | > 33000 |
| COc1ccccc1-n1ncc(C(=O)N2CCc3cc(Cl)ccc32)c1N [Example 61, (5-Amino-1-(2-methoxyphenyl)-1H-pyrazol-4-yl)(5-chloroindolin-1-yl)methanone] | 900 | 28000 |
| Cc1c(F)cccc1-n1nnc(C(=O)Nc2ccc(Cl)cn2)c1N [Example 75, 5-Amino-N-(5-chloropyridin-2-yl)-1-(3-fluoro-2-methylphenyl)-1H-1,2,3-triazole-4-carboxamide] | 800 | > 33000 |
| CCc1nn(-c2ccccc2OC)c(N)c1C(=O)Nc1ccc(C(F)(F)F)cn1 [Example 114, 5-Amino-3-ethyl-1-(2-methoxyphenyl)-N-(5-(trifluoromethyl)pyridin-2-yl)-1H-pyrazole-4-carboxamide] | 400 | > 33000 |
| CCc1nn(-c2cccc(F)c2C)c(N)c1C(=O)Nc1ccc(C(F)(F)F)cn1 [Example 143, 5-Amino-3-ethyl-1-(3-fluoro-2-methylphenyl)-N-[5-trifluoromethyl-2-pyridyl]pyrazole-4-carboxamide] | 300 | 10000 |
| Nc1c(C(=O)Nc2ccc(Cl)cn2)cnn1-c1ccccc1-c1cccnc1 [Example 196, 5-Amino-N-(5-chloropyridin-2-yl)-1-(2-(pyridin-3-yl)phenyl)-1H-pyrazole-4-carboxamide] | 700 | 17000 |
| COc1cc(-c2ccccc2-n2ncc(C(=O)Nc3ccc(Cl)cn3)c2N)ccn1 [Example 197, 5-Amino-N-(5-chloropyridin-2-yl)-1-(2-(2-methoxypyridin-4-yl)phenyl)-1H-pyrazole-4-carboxamide] | 1000 | > 33000 |
| Nc1c(C(=O)Nc2ccc(C(F)(F)F)cn2)cnn1-c1ccccc1O [Example 208, 5-Amino-1-(2-hydroxyphenyl)-N-(5-(trifluoromethyl)pyridin-2-yl)-1H-pyrazole-4-carboxamide] | 300 | > 33000 |
| Cc1c(F)cccc1-n1cnc(C(=O)Nc2ccc(C(F)(F)F)cn2)c1N [Example 251, 5-Amino-1-(3-fluoro-2-methylphenyl)-N-(5-(trifluoromethyl)pyridin-2-yl)-1H-imidazole-4-carboxamide] | 200 |  |

More lines, in order of falling IC50 [1], values ahead:

| IC50 [1] [nM] | Compound | IC50 [2] [nM] |
| --- | --- | --- |
| 1900 | COc1ccccc1-n1cnc(C(=O)Nc2ccc(Cl)cc2)c1N [Example 254, 5-Amino-N-(4-chlorophenyl)-1-(2-methoxyphenyl)-1H-imidazole-4-carboxamide] | > 33000 |
| 1000 | CCc1ccccc1-n1ncc(C(=O)Nc2ccc(OCC(F)(F)F)cn2)c1N [Example 140, 5-Amino-1-(2-ethylphenyl)-N-(5-(2,2,2-trifluoroethoxy)pyridin-2-yl)-1H-pyrazole-4-carboxamide] | > 33000 |
| 800 | Cc1c(F)cccc1-n1ncc(C(=O)N2CCc3cc(Cl)ccc32)c1N [Example 57, (5-Amino-1-(3-fluoro-2-methylphenyl)-1H-pyrazol-4-yl)(5-chloroindolin-1-yl)methanone] | > 33000 |
| 600 | Cc1nn(-c2cccc(F)c2C)c(N)c1C(=O)Nc1ccc(Cl)cn1 [Example 137, 5-Amino-N-(5-chloro-2-pyridyl)-1-(3-fluoro-2-methylphenyl)-3-methyl-pyrazole-4-carboxamide] | > 33000 |
| 400 | Cc1nn(-c2ccccc2F)c(N)c1C(=O)Nc1ccc(C(F)(F)F)cn1 [Example 153, 5-Amino-1-(2-fluorophenyl)-3-methyl-N-(5-(trifluoromethyl)pyridin-2-yl)-1H-pyrazole-4-carboxamide] | > 33000 |
| 300 | Cc1ccccc1-n1ncc(C(=O)Nc2ccc(Cl)cc2F)c1N [Example 7, 5-Amino-N-(4-chloro-2-fluoro-phenyl)-1-(o-tolyl)-1H-pyrazole-4-carboxamide] | > 33000 |
